Source: ChEMBL document CHEMBL4351025, “Indole-nitroimidazole conjugates as efficient manipulators to decrease the genes expression of methicillin-resistant Staphylococcus aureus” (Eur J Med Chem, 2019)
≈ marks a conversion by molar mass, not a printed value.

Experiments:
[1] = system: Klebsiella pneumoniae; experiment: Antibacterial activity against Klebsiella pneumoniae incubated for 24 hrs by two fold serial dilution method; format: functional
[2] = system: Staphylococcus aureus; experiment: Antibacterial activity against Staphylococcus aureus ATCC 29213 incubated for 24 hrs by two fold serial dilution method; format: functional; conditions: ATCC 29213, 24 h
[3] = system: Staphylococcus aureus; experiment: Antibacterial activity against methicillin-resistant Staphylococcus aureus N315 incubated for 24 hrs by two fold serial dilution method; format: functional; conditions: N315, 24 h
[4] = system: Escherichia coli; experiment: Antibacterial activity against Escherichia coli incubated for 24 hrs by two fold serial dilution method; format: functional
[5] = system: Enterococcus faecalis; experiment: Antibacterial activity against Enterococcus faecalis incubated for 24 hrs by two fold serial dilution method; format: functional
[6] = system: Pseudomonas aeruginosa; experiment: Antibacterial activity against Pseudomonas aeruginosa incubated for 24 hrs by two fold serial dilution method; format: functional
[7] = system: Acinetobacter baumannii; experiment: Antibacterial activity against Acinetobacter baumannii incubated for 24 hrs by two fold serial dilution method; format: functional
[8] = Cytotoxicity activity against human A549 cells assessed as cell viability at 2 to 64 ug/ml incubated for 24 hrs by MTT assay relative to control; format: cell-based; conditions: read-out: Activity
[9] = system: Acinetobacter baumannii; experiment: Potency index, ratio of MIC for norfloxacin to test compound MIC for antibacterial activity against Acinetobacter baumannii; format: functional
[10] = system: Klebsiella pneumoniae; experiment: Potency index, ratio of MIC for clinafloxacin to test compound MIC for antibacterial activity against Klebsiella pneumoniae; format: functional

Row | Compound | MIC [1] | MIC [2] | MIC [3] | MIC [4] | MIC [5] | MIC [6] | MIC [7] | viability at 24 h [8] | Ratio [9] | Ratio [10]
1 | CCN(CC)C(=O)Cn1cc(/C=C(/C(C)=O)n2cc([N+](=O)[O-])nc2C)c2ccc(Cl)cc21 | 512 µg/mL (≈ 1120 µM) | 512 µg/mL (≈ 1120 µM) | 512 µg/mL (≈ 1120 µM) | 512 µg/mL (≈ 1120 µM) | 1 µg/mL (≈ 2.18 µM) | 128 µg/mL (≈ 280 µM) | 512 µg/mL (≈ 1120 µM) |  |  | 
2 | C#CCn1cc(/C=C(/C(C)=O)n2cc([N+](=O)[O-])nc2C)c2ccccc21 | 128 µg/mL (≈ 367 µM) | 128 µg/mL (≈ 367 µM) | 2 µg/mL (≈ 5.74 µM) | 512 µg/mL (≈ 1470 µM) | 32 µg/mL (≈ 91.9 µM) | 128 µg/mL (≈ 367 µM) | 128 µg/mL (≈ 367 µM) |  |  | 
3 | COc1cccc2c1C(=O)c1c(O)c3c(c(O)c1C2=O)C[C@@](O)(C(=O)CO)C[C@@H]3O[C@H]1C[C@H](N)[C@H](O)[C@H](C)O1 [DOXORUBICIN] |  |  |  |  |  |  |  | < 75% |  | 
4 | CC(=O)/C(=C/c1cn(CC(=O)N(C)c2ccccc2)c2ccccc12)n1cc([N+](=O)[O-])nc1C | 32 µg/mL (≈ 69.9 µM) | 128 µg/mL (≈ 280 µM) | 1 µg/mL (≈ 2.19 µM) | 32 µg/mL (≈ 69.9 µM) | 64 µg/mL (≈ 140 µM) | 128 µg/mL (≈ 280 µM) | 128 µg/mL (≈ 280 µM) |  |  | 
5 | CCN(CC)C(=O)Cn1cc(/C=C(/C(C)=O)n2cc([N+](=O)[O-])nc2C)c2ccccc21 | 8 µg/mL (≈ 18.9 µM) | 128 µg/mL (≈ 302 µM) | 16 µg/mL (≈ 37.8 µM) | 16 µg/mL (≈ 37.8 µM) | 64 µg/mL (≈ 151 µM) | 16 µg/mL (≈ 37.8 µM) | 1 µg/mL (≈ 2.36 µM) |  | 8 | 4
6 | CCn1cc(C(=O)O)c(=O)c2cc(F)c(N3CCNCC3)cc21 [NORFLOXACIN] | 4 µg/mL (≈ 12.5 µM) | 2 µg/mL (≈ 6.26 µM) | 8 µg/mL (≈ 25.1 µM) | 16 µg/mL (≈ 50.1 µM) | 4 µg/mL (≈ 12.5 µM) | 2 µg/mL (≈ 6.26 µM) | 8 µg/mL (≈ 25.1 µM) |  |  | 
